{"source": "paper PMC11011246", "about": "(Cell, 2024)", "key": {"[1]": {"assay": "Pharmacokinetics of HRX215 in mice", "assay_type": "in vivo, C57BL/6 wildtype mice", "conditions": "30 mg/kg p.o."}, "[2]": {"test_system": "C57BL/6 WT mice", "assay": "4-week treatment/toxicity study in wildtype mice", "assay_type": "in vivo, mouse", "conditions": "10 mg/kg, vs vehicle"}, "[3]": {"test_system": "C57BL/6 WT mice", "assay": "Short-term CCl4 liver damage model", "assay_type": "in vivo, mouse", "conditions": "0.4, 2, 10 mg/kg p.o., 48 h after CCl4, vs vehicle"}, "[4]": {"test_system": "C57BL/6 WT mice", "assay": "Short-term GAN-NASH model", "assay_type": "in vivo, mouse", "conditions": "10 mg/kg daily, 12 weeks, vs vehicle"}, "[5]": {"test_system": "C57BL/6 WT mice", "assay": "Long-term GAN-NASH HCC model", "assay_type": "in vivo, mouse"}, "[6]": {"test_system": "NrasG12V Cdkn2aARF-/- HCC cells", "assay": "HCC cell proliferation and trypan blue cell death", "assay_type": "cell-based, murine", "conditions": "HRX215 10 μM vs DMSO, up to 72 h"}, "[7]": {"test_system": "NrasG12V Trp53-/- HCC cells", "assay": "HCC cell proliferation and trypan blue cell death", "assay_type": "cell-based, murine", "conditions": "HRX215 10 μM vs DMSO, up to 72 h"}, "[8]": {"test_system": "pigs", "assay": "85% hepatectomy", "assay_type": "in vivo, pig"}, "[9]": {"assay": "IND-enabling GLP safety pharmacology", "assay_type": "in vivo, rats, dogs", "conditions": "GLP studies"}, "[10]": {"assay": "4-week GLP toxicity study", "conditions": "both, Wistar Han, rat, in vivo, po"}, "[11]": {"assay": "4-week GLP toxicity study", "conditions": "both, beagle, dog, in vivo, po"}, "[12]": {"assay": "First-in-human phase I trial, pharmacokinetics", "assay_type": "in vivo", "conditions": "for Tmax: male, plasma, oral, 50 mg, 50 mg single dose"}, "[13]": {"test_system": "healthy male volunteers", "assay": "First-in-human phase I trial, safety and tolerability", "assay_type": "in vivo"}, "[14]": {"test_system": "C57BL/6 WT mice", "assay": "Partial hepatectomy in wildtype mice", "conditions": "48 h after partial hepatectomy"}, "[15]": {"test_system": "C57BL/6 WT mice", "assay": "CCl4 liver-damage", "conditions": "10 mg/kg p.o., CCl4 3 weeks, 48 h after PH"}}, "data": [{"smiles": "CCCS(=O)(=O)Nc1c(F)ccc(C(=O)c2n[nH]c3ncc(-c4ccncc4)cc23)c1F", "note": "[HRX215]", "values": [{"measurement": "t(1/2), elimination half-life", "setting": "[1]", "result": "3.4 to 3.9", "unit": "h"}, {"measurement": "complete blood counts", "setting": "[2]; 4 weeks", "result": "No significant changes were detected"}, {"measurement": "untargeted metabolomics of plasma and liver", "setting": "[2]", "result": "no safety relevant changes were detected"}, {"measurement": "hepatocyte death (TUNEL)", "setting": "[3]", "result": "significantly reduced hepatocyte death"}, {"measurement": "numbers of senescent cells in NASH livers", "setting": "[4]", "result": "found no differences"}, {"measurement": "hepatic inflammation and hepatocyte ballooning", "setting": "[5]; 10 mg/kg daily, 12 weeks", "result": "no reduction of hepatic inflammation and hepatocyte ballooning"}, {"measurement": "hepatocyte proliferation (Ki67)", "setting": "[5]; 10 mg/kg daily, 12 weeks", "result": "slightly increased hepatocyte proliferation"}, {"measurement": "liver fibrosis", "setting": "[5]; 10 mg/kg daily, 12 weeks", "result": "found reduced in HRX215 treated livers, but results missed statistical significance"}, {"measurement": "overall hepatic lipid content", "setting": "[5]; 10 mg/kg daily, 12 weeks", "result": "significant reduction of the overall hepatic lipid content"}, {"measurement": "tumor size", "setting": "[5]; 10 mg/kg daily, 12 weeks", "result": "tendency toward a reduction of tumor size"}, {"measurement": "number of tumor nodules per liver", "setting": "[5]; 10 mg/kg daily, 12 weeks, vs baseline and vehicle", "result": "did not result in a higher number of tumor nodules per liver"}, {"measurement": "numbers of dysplastic premalignant lesions", "setting": "[5]; 10 mg/kg daily, 12 weeks, vs vehicle", "result": "did not reveal significant differences"}, {"measurement": "NAS score development", "setting": "[5]; non-tumor bearing liver parts", "result": "more animals with an improved NAS score and less animals with a worsened NAS score"}, {"measurement": "cell proliferation", "setting": "[6]", "result": "significantly reduced cell proliferation"}, {"measurement": "cell proliferation", "setting": "[7]", "result": "significantly reduced cell proliferation"}, {"measurement": "aspartate aminotransferase", "setting": "[8]; pigs, 85% hepatectomy", "result": "only transiently increased after surgery"}, {"measurement": "bilirubin plasma levels", "setting": "[8]; pigs, 85% hepatectomy", "result": "only a transient rise with a subsequent drop"}, {"measurement": "intracranial pressure (ICP) after surgery", "setting": "[8]; pigs, 85% hepatectomy", "result": "did not show an increase in ICP values"}, {"measurement": "plasma ammonia", "setting": "[8]; pigs, 85% hepatectomy", "result": "prevented an increase of plasma ammonium"}, {"measurement": "animals with normal behavior that survived", "setting": "[8]; post-surgery treatment group (start 12 h after surgery)", "result": "5 out of 6"}, {"measurement": "animals with normal behavior that survived", "setting": "[8]; pre-surgery treatment group (start 12 h before surgery)", "result": "4 out of 6"}, {"measurement": "effect on the cardiovascular, neurological, or respiratory system", "setting": "[9]", "result": "absence of any effect"}, {"measurement": "NOAEL at 4 weeks", "setting": "[10]", "result": 300, "unit": "mg/kg/day"}, {"measurement": "NOAEL at 4 weeks", "setting": "[11]", "result": 250, "unit": "mg/kg/day"}, {"measurement": "exposure (Cmax and AUC) versus dose", "setting": "[12]; ascending doses", "result": "increased proportionally with ascending doses"}, {"measurement": "Tmax", "setting": "[12]; fasting", "result": 1.2, "unit": "h"}, {"measurement": "Tmax", "setting": "[12]; fed", "result": 3.9, "unit": "h"}, {"measurement": "mild to moderate adverse effects, percentage", "setting": "[13]; HRX215 groups, n = 36", "result": 36.1, "unit": "%"}, {"measurement": "number of mild to moderate adverse effects (subjects/group)", "setting": "[13]; HRX215 groups, n = 36", "result": "13/36"}, {"measurement": "severe or serious adverse events", "setting": "[13]; single and multiple doses 5-500 mg", "result": "no severe or serious adverse events were reported"}, {"measurement": "complete blood counts", "setting": "[13]; vs placebo", "result": "no significant differences"}, {"measurement": "proliferating hepatocytes (Ki67)", "setting": "[14]; 0.4 mg/kg p.o.", "result": 15.38, "unit": "%"}, {"measurement": "proliferating hepatocytes (Ki67)", "setting": "[14]; 2 mg/kg p.o.", "result": 15.15, "unit": "%"}, {"measurement": "proliferating hepatocytes (Ki67)", "setting": "[14]; 10 mg/kg p.o.", "result": 26.3, "unit": "%"}, {"measurement": "hepatocyte proliferation upon partial hepatectomy in fibrotic livers", "setting": "[15]", "result": "enhance hepatocyte proliferation"}]}]}
